Key:
FGF-2 = FGF-2 (Homo sapiens, UniProt P09038); test: Competition with biotinylated TS3R domain for binding to immobilized FGF-2 (DELFIA); settings: for % TS3R/FGF-2 binding vs. control: control = 100% binding, average of 3 experiments
Text: For the evaluation of the binding of the compounds of the invention to FGF-2, the test described in G. Colombo et al. J. Biol. Chem., 285: 8733, 2010 has been used. In this reference the binding test has been used to assay the binding of compound sm27 to FGF-2. Specifically, the test allows to evaluate the capability of the compounds under examination to compete with the biotinylated TS3R domain (the recombinant part of Thrombospondine 1 (TSP-1) containing the bond sequence for FGF-2), for the binding to FGF-2 immobilized on a plastic support.
In detail, FGF-2 (0.1 μg) has been immobilized on 96 well plates (DELFIA microtitration plates, Perkin Elmer) leaving into contact for one night at 4° C. by using known techniques. After saturation of the non specific sites with 1% BSA, the compounds to be tested and then the biotinylated TS3R domain (10 nM) in PBS 1% BSA were added. After a period of incubation of 3 hours, the plate was washed and treated with Eu-Labeled Streptavidin 1:1000 and incubated again for one further hour. The amount of TS3R bound to FGF was determined with DELFIA Enhancement Solution, measuring the resolved fluorescence (Victor, PerkinElmer).
The test was carried out on the compounds of examples 2, 4, 8, 10 and 12. The used concentrations were respectively of 10 and 100 μM. The obtained results are reported in Table 1 and have been expressed as inhibition percentage of the TS3R/FGF-2 binding induced by the compounds of the invention vs. the control (TS3R/FGF-2 binding in the absence of the compounds of the invention). As a reference compound sm27 was used and assayed at a concentration of 100 μM. […] The compounds of the invention in this test are as effective as sm27 at the assayed dose of 100 μM.
By using the test in vitro described in example 17 the binding to FGF-2 of the compounds (2p) and (2r) having the formulas herein below reported, has been assayed. These compounds are disclosed by G. A. Pinna et al. on Il Farmaco 58 (2003) 749-763.

BAEC cells [1] = test: Inhibition of the proliferation of endothelial cells induced by FGF-2 (Crystal Violet); assay type: cell-based, Bovine; settings: Table 6; 100 μM; expressed as in Table 2; average of 3 experiments
[2] = test system: Aorta sections (angiogenesis induced by FGF-2); test: Angiogenesis test ex vivo (aorta section), FGF-2 induced sprouting in Matrigel; assay type: cell-based, C57BL/6 mice; settings: for Sprouting area (% vs. control): FGF-2 30 ng/ml, eleven days, control = 100%
Procedure: Aorta sections (aorta rings of about 1 mm) taken from C57BL/6 mice, are dipped in a Matrigel gel (BD Biosciences), in 96 well plates, in DMEM 5% FCS containing FGF-2 (30 ng/ml) together with the compounds of the invention at concentrations in the range indicated herein below. By using an inverted microscope (IX70; Olympus) after some days it is observed in the plate the formation of a network of capillary structures irradiating from the aorta section. Images were taken and analyzed by ImageJ 1.41. After eleven days from the beginning of the experiment the angiogenic response is quantified as sprouting area, therefore subtracting the area of the aorta section.
The compounds of the examples 2, 4 and 10 and, as a reference, the reference compound sm27 at concentrations comprised between 50 and 100 μM were used. In Table 4 the results are reported, expressed as a percent variation (decrease) of the sprouting area with respect to that of the control (presence of FGF-2 only).
In FIG. 1 the aorta sections are reported, analyzed after eleven days in absence (left photo—(a)) or in the presence (right photo (b)) of the compound obtained in example 10 (concentration 100 μM). […]

[3] = target: T1, FGF-2 binding to BAEC cells (Bovine Aortic Endothelial Cells) (Homo sapiens, UniProt P09038); test: Inhibition of the binding of europium-labelled FGF-2 to endothelial cells; assay type: cell-based; settings: 100 μM; control = 100% binding; average of 3 experiments
T1 construct: host or cells: added exogenously to BAEC (Bovine Aortic Endothelial Cells)
Procedure: Sub-confluent BAEC cells (Bovine Aortic Endothelial Cells), in 96 well plates, were incubated with DMEM without serum for 30 minutes at 4° C. The compound of the invention to be assayed and FGF-2, labelled with europium (FGF-Eu, 10 ng/ml), were added in DMEM containing 0.15% gelatine and HEPES 25 mM. The plate was incubated for 2 hours at 4° C. After washings with cold medium, the amount of FGF-Eu bound to the cells was determined with DELFIA Enhancement Solution by measuring the time resolved fluorescence (Victor, PerkinElmer).
The compounds obtained in examples 2, 4, 8 and 10 were used at a concentration of 100 μM. As a reference the compound sm27 was used. The obtained results are reported in Table 2 and are expressed as inhibition percentage of the FGF-2 binding to endothelial cells induced by the compounds of the invention and by sm27 vs. the control (FGF-2 bond to endothelial cells in absence of inhibition). The value obtained with the control was assumed as 100% binding.
Example 18 has been repeated by using the two compounds of the prior art (2p) and (2r).

BAEC cells [4] = test: Inhibition of the proliferation of endothelial cells induced by FGF-2 (Crystal Violet); assay type: cell-based, Bovine; settings: FGF-2 5 ng/ml, 72 h
Procedure: BAEC cells (25000/ml) in DMEM 1.5% FCS were sown in 96 well plates. After 24 h the culture medium was substituted with DMEM 0.5% FCS containing the compounds of the invention at different concentrations in the range indicated herein below, and FGF-2 (5 ng/ml) or 10% FCS, added as stimulator of the cellular proliferation. After 72 h of incubation, the cells were fixed and stained with Crystal Violet, (Sigma). The stain was then eluted by using a solution 1:1 of ethanol and sodium citrate 0.1M and the absorption of the solution determined at the wave length of 540 nm.
In this test the compounds of examples 2, 4, 8 and 10 were used. For each compound several concentrations comprised between 10 and 100 μM were prepared. The obtained results are reported in Table 3 and have been given as percent reduction of the cellular proliferation of endothelial cells in the presence of FGF-2, induced by the compounds of the invention, with respect to the control (proliferation in the presence of FGF-2 only).

Sequence of FGF-2 (P09038 143-288, species assumed): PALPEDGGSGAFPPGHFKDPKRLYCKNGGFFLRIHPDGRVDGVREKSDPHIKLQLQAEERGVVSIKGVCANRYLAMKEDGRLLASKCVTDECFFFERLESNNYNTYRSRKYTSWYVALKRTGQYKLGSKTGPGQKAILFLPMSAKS
T1 sequence (P09038 143-288): as the sequence (P09038 143-288, species assumed) above

Row | Compound | Binding to FGF-2 / inhibition of TS3R/FGF-2 binding, in words (FGF-2; 100 μM) | % TS3R/FGF-2 binding vs. control (FGF-2; 100 μM) [%] | Cell proliferation (% vs. control) (BAEC cells [1]) [%] | Inhibition of the angiogenesis induced by FGF-2 (aorta ring), in words [2] | Sprouting area (% vs. control) ([2]; 100 μM) [%] | % TS3R/FGF-2 binding vs. control (FGF-2; 10 μM) [%] | Inhibition of the FGF-2 binding to endothelial cells (% binding FGF-2/endothelial cells vs. control) [3] [%] | Cell proliferation (% vs. control) (BAEC cells [4]; 10 μM, control = 100%) [%] | Cell proliferation (% vs. control) (BAEC cells [4]; 50 μM, control = 100%) [%] | Cell proliferation (% vs. control) (BAEC cells [4]; 100 μM) [%] | Sprouting area (% vs. control) ([2]; 50 μM) [%] | Sprouting area (% vs. control) ([2]; 75 μM) [%]
1 | CN(CCCNC(=O)c1nn(-c2ccccc2)c2c1Cc1ccccc1-2)CCCNC(=O)c1nn(-c2ccccc2)c2c1Cc1ccccc1-2 [Compound (2p), reference compound] | do not show any significant binding to FGF-2 | 96 ± 3 | 97 ± 4 | do not result active in inhibiting the angiogenesis induced by FGF-2 | 95.5 ± 5 | – | – | – | – | – | – | –
2 | CN(CCCNC(=O)c1nn(-c2ccc(Cl)cc2Cl)c2c1Cc1ccccc1-2)CCCNC(=O)c1nn(-c2ccc(Cl)cc2Cl)c2c1Cc1ccccc1-2 [Compound (2r), reference compound] | do not show any significant binding to FGF-2 | 98 ± 6 | 94 ± 6 | do not result active in inhibiting the angiogenesis induced by FGF-2 | 91.1 ± 6 | – | – | – | – | – | – | –
3 | O=C(NCCCNC(=O)c1nn(-c2ccc(Cl)cc2Cl)c2c1Cc1cc(S(=O)(=O)O)sc1-2)c1nn(-c2ccc(Cl)cc2Cl)c2c1Cc1cc(S(=O)(=O)O)sc1-2 [Example 2, 3,3′-(propane-1,3-diylbis(azanediyl))bis(oxomethylene)bis(1-(2,4-dichlorophenyl)-1,4-dihydro-thieno[3′,2′:4,5]cyclopenta[1,2-c]pyrazole-6-sulfonic acid)] | – | 13 ± 3 | – | – | 1.8 ± 0.7 | 25 ± 3 | 22 ± 3 | 90 ± 3 | 20 ± 4 | 8 ± 3 | 43.9 ± 9 | 10.5 ± 5
4 | O=C(NCCCCCCNC(=O)c1nn(-c2ccc(Cl)cc2Cl)c2c1Cc1cc(S(=O)(=O)O)sc1-2)c1nn(-c2ccc(Cl)cc2Cl)c2c1Cc1cc(S(=O)(=O)O)sc1-2 [Example 4, 3,3′-(hexane-1,6-diylbis(azanediyl))bis(oxomethylene)bis(1-(2,4-dichlorophenyl)-1,4-dihydro-thieno[3′,2′:4,5]cyclopenta[1,2-c]pyrazole-6-sulfonic acid)] | – | 20 ± 1 | – | – | 15.8 ± 4 | 40 ± 2 | 30 ± 3 | 92 ± 4 | 70 ± 6 | 30 ± 7 | – | 21.0 ± 5
5 | Cc1ccc(Cn2nc(C(=O)NCCCCCCNC(=O)c3nn(Cc4ccc(C)cc4)c4c3Cc3cc(S(=O)(=O)O)sc3-4)c3c2-c2sc(S(=O)(=O)O)cc2C3)cc1 [Example 8, 3,3′-(hexane-1,6-diylbis(azanediyl))bis(oxomethylene)bis(1-(4-methylbenzyl)-1,4-dihydro-thieno[3′,2′:4,5]cyclopenta[1,2-c]pyrazole-6-sulfonic acid)] | – | 25 ± 4 | – | – | – | 61 ± 5 | 28 ± 4 | 95 ± 2 | 80 ± 4 | 36 ± 5 | – | –
6 | O=C(Nc1ccc2cc(S(=O)(=O)O)cc(O)c2c1)Nc1ccc2cc(S(=O)(=O)O)cc(O)c2c1 [sm27, reference compound] | – | 17 ± 5 | – | – | 44.0 ± 8 | – | 40 ± 2 | – | – | 60 ± 6 | – | –
